One data set concerns MCF-7 cells. As to the kind of experiment: MTT cell proliferation assay, MCF-7. The data set is classed as cell-based, human. As to conditions: Homo sapiens, MCF7; MTT, 24 hours treatment, curve fitting; read-out: IC50, proliferation of MCF-7 cells. How it is done: FIG. 8. Effects of HCB on the proliferation of MCF-7 cells. MCF-7 cells were seeded in 96 well plates and treated with drugs at varied concentration for 24 hours. MTT assay was performed to determine remaining viable cells in each well. Results are represented as mean±S.D. (n=7). IC50 was determined by curve fitting.
3-(4,5-Dimethylthiazol-2-yl)-2,5-diphenyltetrazolium Bromide (MTT) Cell Proliferation Assay. To cells grown in 96-well-tissue culture plate, 20 μl/well of MTT solution (5 mg/ml in PBS) was added. After 1-2 hours incubation at 37° C., the plate was centrifuged. Supernatant was discarded and 100 μl DMSO was added to dissolve water insoluble formazan, and the absorbance was read at 540 nm with a plate reader.

Data set [1] has as its system SARS-CoV-2. As to the kind of experiment: microbe, parasite or virus in culture. The data set is classed as cell-based.
Data set [2] deals with SARS-CoV-2. As to the kind of experiment: SARS-CoV-2 antiviral assay in Vero cells. The data set is classed as cell-based. As to conditions: Severe acute respiratory syndrome coronavirus 2, Vero.
For data set [3], the system named is 293T human embryonic kidney cells over-expressing the ACE2 receptor. The data set is described as follows: Cytotoxicity assay in 293T/ACE2 cells. Particulars: 293T/ACE2 cytotoxicity.
A short description of data set [4]: Cytotoxicity assay in 293T/ACE2 cells. As to conditions: human, HEK293T/17 cells expressing human ACE2.
A short description of another data set: in vitro. As to conditions: African green monkey, Vero E6 cells.
A further data set deals with Vero cells. The data set is described as follows: Cytotoxicity assay in Vero cells.

Results on four compounds are retold here after US20240067603A1, “CUBANYL BIGUANIDE COMPOUNDS” (REGENTS OF THE UNIVERSITY OF MINNESOTA, priority 2020, published 2024).

The structures appear in SMILES notation.

On to `N=C(NCC12C3C4C5C3C1C5C42)NC(=N)NCC12C3C4C5C3C1C5C42` (centres unmarked) [DCB, Dicubanomethyl Biguanide], for which the IC50 in the data set on MCF-7 cells was determined as 22100 ± 1700 nM.
Still for that read-out and setting: the same measure for `CC(F)(F)CCCCNC(=N)NC(=N)NCC12C3C4C5C3C1C5C42` (centres unmarked) [HCB-F2, N1-5′,5′-difluorohexyl-N5-(cuban-1-yl)methyl-biguanide]: 13500 nM.
Same read-out and setting: the same measure for `N=C(NCCCCCC(F)(F)F)NC(=N)NCC12C3C4C5C3C1C5C42` (centres unmarked) [HCB-F3, N1-6′,6′,6′-trifluorohexyl-N5-(cuban-1′-yl)methyl-biguanide]: 13700 nM.
As to `CCC(CC)COC(=O)[C@H](C)N[P@](=O)(OC[C@H]1O[C@@](C#N)(c2ccc3c(N)ncnn23)[C@H](O)[C@@H]1O)Oc1ccccc1` [remdesivir], the IC50 with SARS-CoV-2 [1] (Severe acute respiratory syndrome coronavirus 2, 293T/ACE2, read-out: antiviral IC50) was found to be 20 nM; in the data set with SARS-CoV-2 [2] (read-out: antiviral IC50), 1040 nM. Moreover, the IC90 is 22 nM in the data set on SARS-CoV-2 [1] (Severe acute respiratory syndrome coronavirus 2, 293T/ACE2, read-out: antiviral IC90) and 2250 nM in the data set with SARS-CoV-2 [2] (read-out: antiviral IC90). Moreover, the CC10 in data set [3] is more than 100 nM; with Vero cells, more than 286 nM. Besides, the CC50 in data set [4] is more than 100 nM. The compound further returned a half-maximal cytotoxic concentration (CC50) at 48 h in “in vitro” of more than 20000 nM.

As usually defined, the IC90 is the concentration at which the effect reaches the 90% level. What is called CC50 is the concentration that lowers cell viability or growth by half.
